Source: patent US12077503B2, “Substituted cyclic amides and their use as herbicides” (FMC CORPORATION, priority 2015, dated 2024)

How the values were obtained:
Assay type in all cases: in vivo
[1] = test system: pigweed (Amaranthus retroflexus); test: Test A preemergence; settings: Amaranthus retroflexus, pre-emergence, 240 h, preemergence, 0 to 100 scale where 0 is no effect and 100 is complete control, read-out: Pigweed plant response rating
[2] = test system: ragweed (common ragweed, Ambrosia elatior); test: Test A preemergence; settings: Ambrosia artemisiifolia, pre-emergence, 240 h, 125 g ai/ha, preemergence; 0 to 100 scale where 0 is no effect and 100 is complete control; approx. 10 d; read-out: Ragweed plant response rating
Outline: (§1)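 Ratings of 0 (no effect) to 100 (complete control) come from visual comparison with untreated controls roughly 10 d after treatment. Test chemicals, formulated in a non-phytotoxic solvent mixture with surfactant, were applied either as a preemergence directed soil spray on seeded soil or postemergence to one- to two-leaf plants 2 to 10 cm tall.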

[3] = test system: ryegrass, Italian (Italian ryegrass, Lolium multiflorum); test: Test A preemergence; settings: Lolium multiflorum, pre-emergence, 240 h, preemergence, 0 to 100 scale where 0 is no effect and 100 is complete control, read-out: Ryegrass, Italian plant response rating
Outline: as §1

[4] = test system: giant foxtail (Setaria faberii); test: Test A preemergence; settings: Setaria faberi, pre-emergence, 240 h, preemergence, 0 to 100 scale where 0 is no effect and 100 is complete control, read-out: Foxtail, Giant plant response rating
Outline: as §1

Kochia (Kochia scoparia) [5] = test: Test A preemergence; settings: Bassia scoparia, pre-emergence, 240 h, preemergence, 0 to 100 scale where 0 is no effect and 100 is complete control, read-out: Kochia plant response rating
Outline: as §1

[6] = test system: barnyardgrass (Echinochloa crus-galli); test: Test A preemergence; settings: Echinochloa crus-galli, pre-emergence, 240 h, preemergence, 0 to 100 scale where 0 is no effect and 100 is complete control, read-out: Barnyardgrass plant response rating
Outline: as §1

[7] = test system: ragweed (common ragweed, Ambrosia elatior); test: Test A postemergence; settings: Ambrosia artemisiifolia, post-emergence, 240 h, postemergence, read-out: Ragweed plant response rating
Outline: as §1

[8] = test system: ryegrass, Italian (Italian ryegrass, Lolium multiflorum); test: Test A postemergence; settings: Lolium multiflorum, post-emergence, 240 h, postemergence, read-out: Ryegrass, Italian plant response rating
Outline: as §1

[9] = test system: giant foxtail (Setaria faberii); test: Test A postemergence; settings: Setaria faberi, post-emergence, 240 h, postemergence, read-out: Foxtail, Giant plant response rating
Outline: as §1

corn (Zea mays) = test: Test A postemergence; settings: Zea mays, post-emergence, 240 h, postemergence, read-out: Corn plant response rating
Outline: as §1

[10] = test system: wheat (Triticum aestivum); test: Test A postemergence; settings: Triticum aestivum, post-emergence, 240 h, postemergence, read-out: Wheat plant response rating
Outline: as §1

[11] = test system: Galium (catchweed bedstraw, Galium aparine); test: Test A postemergence; settings: Galium, post-emergence, 240 h, postemergence, read-out: Galium plant response rating
Outline: as §1

Kochia (Kochia scoparia) [12] = test: Test A postemergence; settings: Bassia scoparia, post-emergence, 240 h, postemergence, read-out: Kochia plant response rating
Outline: as §1

[13] = test system: barnyardgrass (Echinochloa crus-galli); test: Test A postemergence; settings: Echinochloa crus-galli, post-emergence, 240 h, postemergence, read-out: Barnyardgrass plant response rating
Outline: as §1

[14] = test system: blackgrass (Alopecurus myosuroides); test: Test A postemergence; settings: Alopecurus myosuroides, post-emergence, 240 h, postemergence, read-out: Blackgrass plant response rating
Outline: as §1

[15] = 125 g ai/ha, visual injury on 0 to 100 scale (0 no effect, 100 complete control), approx. 10 d
[16] = 500 g ai/ha, 0 to 100 scale, 0 is no effect, 100 is complete control

## Cc1c(F)cccc1NC(=O)[C@H]1C(=O)NC[C@@H]1c1cc(F)c(F)c(F)c1 [Compound 1125]
[1]; 125 g ai/ha, approx. 10 d
  pest or weed control at 125 g/ha: 0%
[1]; 500 g ai/ha
  pest or weed control at 500 g/ha: 40%
[2]
  pest or weed control at 125 g/ha: 0%
[3]; 125 g ai/ha, approx. 10 d
  pest or weed control at 125 g/ha: 0%
[3]; 500 g ai/ha
  pest or weed control at 500 g/ha: 60%
[4]; 125 g ai/ha, approx. 10 d
  pest or weed control at 125 g/ha: 90%
[4]; 500 g ai/ha
  pest or weed control at 500 g/ha: 100%
Kochia (Kochia scoparia) [5]; 125 g ai/ha, approx. 10 d
  pest or weed control at 125 g/ha: 50%
Kochia (Kochia scoparia) [5]; 500 g ai/ha
  pest or weed control at 500 g/ha: 80%
[6]; 125 g ai/ha, approx. 10 d
  pest or weed control at 125 g/ha: 90%
[6]; 500 g ai/ha
  pest or weed control at 500 g/ha: 90%
[7]; [15]
  pest or weed control at 125 g/ha: 0%
[7]; [16]
  pest or weed control at 500 g/ha: 0%
[8]; [15]
  pest or weed control at 125 g/ha: 0%
[8]; [16]
  pest or weed control at 500 g/ha: 60%
[9]; [15]
  pest or weed control at 125 g/ha: 90%
[9]; [16]
  pest or weed control at 500 g/ha: 90%
Corn (Zea mays); [15]
  plant injury at 125 g/ha: 30%
Corn (Zea mays); [16]
  plant injury at 500 g/ha: 60%
[10]; [15]
  plant injury at 125 g/ha: 30%
[10]; [16]
  plant injury at 500 g/ha: 40%
[11]; [15]
  pest or weed control at 125 g/ha: 40%
[11]; [16]
  pest or weed control at 500 g/ha: 50%
Kochia (Kochia scoparia) [12]; [15]
  pest or weed control at 125 g/ha: 0%
Kochia (Kochia scoparia) [12]; [16]
  pest or weed control at 500 g/ha: 40%
[13]; [15]
  pest or weed control at 125 g/ha: 90%
[13]; [16]
  pest or weed control at 500 g/ha: 90%
[14]; [15]
  pest or weed control at 125 g/ha: 40%
[14]; [16]
  pest or weed control at 500 g/ha: 50%
